Measured values published in US20170027172A1, “USE OF SUBSTITUTE OXO TETRAHYDROQUINOLINE SULFONAMIDES OR SALTS THEREOF FOR RAISING STRESS TOLERANCE OF PLANTS” (BAYER CROPSCIENCE AKTIENGESELLSCHAFT, priority 2014, published 2017).

Experiments:
Triticum aestivum = assay: Drought stress test on wheat Part D, reduction in damage intensity from fresh weights; format: in vivo; details: efficacy = reduction in damage intensity (fresh weight) under drought stress, at least three repeats
Description: Wheat grains were sown in a standardized number in sandy loam soil plastic pots, covered with soil or sand and grown in a greenhouse under good growth conditions. Pots with uneven degrees of emergence were excluded prior to the start of the trial. The treatment with test substances was effected at the early leaf stage (BBCH10-BBCH13). To assure uniform water supply, the potted plants were supplied with water by dam irrigation prior to substance application. The inventive compounds were first formulated as wettable powders (WP) or dissolved in a solvent mixture. The further dilution was effected with water supplemented with 0.2% wetting agent (e.g. agrotin). The finished spray liquor was sprayed onto the green parts of the plant at an equivalent water application rate of 600 l/ha. Substance application was followed immediately by stress treatment of the plants. Drought stress was induced by gradual drying out under the following conditions: “Day”: 14 hours with illumination at 26-30° C. “Night”: 10 hours without illumination at 18-20° C. The duration of the respective stress phases was guided mainly by the condition of the stressed control plants. It was ended (by re-irrigating and transfer to a greenhouse with good growth conditions) as soon as irreversible damage was observed on the stressed control plants. The end of the stress phase was followed by an about 7-day recovery phase, during which the plants were once again kept under good growth conditions in a greenhouse. The exact duration of the recovery phase was variable for reasons related to the trial. At the end of the recovery phase, the fresh weights of the plant parts above ground were determined. By comparison with unstressed control plants which were kept under good growth conditions over the entire duration of the trial, percentage damage intensities were first calculated from the fresh weight values. The reduction in damage intensity resulting from treatment with test substance was then calculated by the following formula: [formula] EF: Efficacy DIs: Damage intensity of the stressed control plants DIt: Damage intensity of the stressed plants treated with test compound The values reported in table D-1 below are results from at least three repeats. BRSNS=Brassica napus TRZAS=Triticum aestivum

[1] = biological target: T1, phosphatase ABI1 via the co-regulator RCAR11/PYR1 (Arabidopsis thaliana, UniProt O49686+P49597); assay: In vitro inhibition of the phosphatase ABI1 via the co-regulator RCAR11/PYR1, MUP dephosphorylation; format: biochemical; parameters: dose or concentration left out as unconfirmed; details: in a solution of DMSO and water; fluorescence at 460 nm
T1 sequence (O49686 1-191): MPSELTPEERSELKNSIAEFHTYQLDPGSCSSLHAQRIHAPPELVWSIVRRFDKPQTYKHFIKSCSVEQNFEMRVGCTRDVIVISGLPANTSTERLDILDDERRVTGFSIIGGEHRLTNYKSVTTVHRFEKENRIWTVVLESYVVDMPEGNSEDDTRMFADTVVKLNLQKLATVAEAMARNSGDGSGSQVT
T1 sequence (P49597 1-434): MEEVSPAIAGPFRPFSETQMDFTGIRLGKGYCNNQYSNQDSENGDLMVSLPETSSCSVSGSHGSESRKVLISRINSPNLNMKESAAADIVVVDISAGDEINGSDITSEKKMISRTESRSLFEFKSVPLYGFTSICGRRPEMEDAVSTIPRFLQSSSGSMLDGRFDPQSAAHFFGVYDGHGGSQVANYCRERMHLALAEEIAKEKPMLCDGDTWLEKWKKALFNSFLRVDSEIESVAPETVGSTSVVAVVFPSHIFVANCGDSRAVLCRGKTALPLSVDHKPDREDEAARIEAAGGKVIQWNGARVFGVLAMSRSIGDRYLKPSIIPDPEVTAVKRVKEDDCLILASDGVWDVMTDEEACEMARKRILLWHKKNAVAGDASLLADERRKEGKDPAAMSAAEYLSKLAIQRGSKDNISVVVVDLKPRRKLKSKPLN
Description: Effects of the phytohormone abscisic acid (ABA) on the behavior of plants under abiotic stress and the mechanism of action of ABA are described in the literature (cf. Abrams et al., WO97/23441, Park et al. Science, 2009, 324, 1068; Grill et al. Science, 2009, 324, 1064; Tanokura et al. Biophysics, 2011, 7, 123; Schroeder et al. Plant J. 2010, 61, 290). Therefore, it is possible with the aid of a suitable in vitro test system to derive a correlation between the action of ABA and the stress response of a plant under abiotic stress. In the event of water deficiency (drought stress), plants form the phytohormone abscisic acid (ABA). This binds, along with a co-regulator (Regulatory Component of ABA-Receptor=RCAR according to Grill et al. Science, 2009, 324, 1064 or PYR/PYL according to Cutler et al. Science, 2009, 324, 1068), to a phosphatase (e.g. ABI1, a type 2C protein phosphatase, also abbreviated to PP2C) and inhibits its activity. As a result, a “downstream” kinase (e.g. SnRK2) is no longer dephosphorylated. This kinase, which is thus active, via phosphorylation of transcription factors (e.g. AREB/ABF, cf. Yoshida et al., 2010, 61, 672), switches on a genetic protection program to increase drought stress tolerance. The assay described hereinafter utilizes the inhibition of the phosphatase ABI1 via the co-regulator RCAR11/PYR1 aus Arabidopsis thaliana. For the determination of activity, the dephosphorylation of 4-methylumbelliferyl phosphate (MUP) was measured at 460 nm. The in vitro assay was conducted in Greiner 384-well PS microplates F-well, using two controls: a) 0.5% dimethyl sulfoxide (DMSO) and b) 5 μM abscisic acid (ABA). The assay described here was generally conducted with substance concentrations of the appropriate chemical test substances in a concentration range of 0.1 μM to 100 μM in a solution of DMSO and water. The substance solution thus obtained, if necessary, was stirred with esterase from porcine liver (EC 3.1.1.1) at room temperature for 3 h and centrifuged at 4000 rpm for 30 min. A total volume of 45 μl was introduced into each cavity of the microplate, having the following composition: • 1) 5 μl of substance solution, i.e. a) DMSO 5% or b) abscisic acid solution or c) the corresponding example compound of the general formula (I) dissolved in 5% DMSO. • 2) 20 μl of enzyme buffer mix, composed of a) 40% by vol. of enzyme buffer (10 mL contain equal proportions by volume of 500 mM Tris-HCl pH 8, 500 mM NaCl, 3.33 mM MnCl2, 40 mM dithiothreitol (DTT)), b) 4% by vol. of ABI1 dilution (protein stock solution was diluted so as to give, after addition, a final concentration in the assay of 0.15 μg ABI1/well), c) 4% by vol. of RCAR11 dilution (enzyme stock was diluted so as to give, on addition of the dilution to the enzyme buffer mix, a final concentration in the assay of 0.30 μg enzyme/well), d) 5% by vol. of Tween20 (1%), e) 47% by vol. H2O bi-dist. • 3) 20 μl of substrate mix, composed of a) 10% by vol. of 500 mM Tris-HCl pH8, b) 10% by vol. of 500 mM NaCl, c) 10% by vol. of 3.33 mM MnCl2, d) 5% by vol. of 25 mM MUP, 5% by vol. of Tween20 (1%), 60% by vol. of H2O bi-dist.
Enzyme buffer mix and substrate mix were made up 5 minutes prior to the addition and warmed to a temperature of 35° C. On completion of pipetting of all the solutions and on completion of mixing, the plate was incubated at 35° C. for 20 minutes. Finally, a relative fluorescence measurement was made at 35° C. with a BMG Labtech “POLARstar Optima” microplate reader using a 340/10 nm excitation filter and a 460 nm emission filter. The efficacy of the compounds of the general formula (I) is reported in the table which follows using abscisic acid […] as comparative substance (No. 37) according to the following classification: ++++ (inhibition≧90%), +++ (90%>inhibition≧70%), ++ (70%>inhibition≧50%), + (50%>inhibition≧30%). […]

Row | Structure (SMILES) | EF [%] (TRZAS) (Triticum aestivum; 25 g/ha) | EF [%] (TRZAS) (Triticum aestivum; 250 g/ha) | ABI1 inhibition [1]
1 | CCOC(=O)CCN1C(=O)CC(C)(C)c2cc(NS(=O)(=O)Cc3ccc(F)cc3)ccc21 [B52-158] | 10% | – | –
2 | CCOC(=O)CCN1C(=O)CC(C)(C)c2cc(NS(=O)(=O)Cc3cccc(Cl)c3)ccc21 [B52-166] | – | 14% | –
3 | COC(=O)CCN1C(=O)CCc2cc(NS(=O)(=O)Cc3ccc(Cl)cc3)ccc21 [A51-165] | 18% | – | ++++ (inhibition≧90%)
4 | CCOC(=O)CCN1C(=O)CC(C)(C)c2cc(NS(=O)(=O)Cc3ccc(Br)cc3)ccc21 [B52-172] | – | 14% | –
5 | COC(=O)CCN1C(=O)CCc2cc(NS(=O)(=O)Cc3ccc(C#N)cc3)ccc21 [A51-181] | – | 15% | ++++ (inhibition≧90%)
6 | COC(=O)CN1C(=O)CC(C)(C)c2cc(NS(=O)(=O)Cc3ccccc3Cl)ccc21 [B50-168] | – | 14% | –
7 | COC(=O)CCN1C(=O)CCc2cc(NS(=O)(=O)Cc3cccc(C)c3)ccc21 [A51-153] | – | 16% | ++ (70%>inhibition≧50%)
8 | COC(=O)CCN1C(=O)CC(C)(C)c2cc(NS(=O)(=O)Cc3cccc(Br)c3)ccc21 [B51-173] | 16% | – | –
9 | COC(=O)CCN1C(=O)CC(C)(C)c2cc(NS(=O)(=O)Cc3ccc(F)cc3)ccc21 [B51-158] | 13% | – | –
10 | COC(=O)CCN1C(=O)CCc2cc(NS(=O)(=O)Cc3ccc(C(F)(F)F)cc3)ccc21 [A51-178] | 10% | – | ++++ (inhibition≧90%)
11 | COC(=O)CN1C(=O)CC(C)(C)c2cc(NS(=O)(=O)Cc3ccc(F)cc3)ccc21 [B50-158] | – | 18% | –
12 | COC(=O)CCN1C(=O)CCc2cc(NS(=O)(=O)Cc3cccc(Cl)c3)ccc21 [A51-166] | – | 20% | ++ (70%>inhibition≧50%)
13 | COC(=O)CN1C(=O)CC(C)(C)c2cc(NS(=O)(=O)Cc3cccc(C(F)(F)F)c3)ccc21 [B50-179] | – | 15% | –
14 | COC(=O)CN1C(=O)CCc2cc(NS(=O)(=O)Cc3ccccc3[N+](=O)[O-])ccc21 [A50-177] | – | 19% | ++ (70%>inhibition≧50%)
15 | CCOC(=O)CCN1C(=O)CC(C)(C)c2cc(NS(=O)(=O)Cc3cccc(Br)c3)ccc21 [B52-173] | 14% | – | –
16 | N#CCCCN1C(=O)CCc2cc(NS(=O)(=O)Cc3cccc(Cl)c3)ccc21 [A48-166] | – | 13% | ++ (70%>inhibition≧50%)
17 | COC(=O)CN1C(=O)CC(C)(C)c2cc(NS(=O)(=O)Cc3ccc(C(F)(F)F)cc3)ccc21 [B50-178] | – | 20% | –
18 | Cc1ccc(CS(=O)(=O)Nc2ccc3c(c2)CCC(=O)N3CC2CCC2)cc1 [A21-152] | – | – | ++++ (inhibition≧90%)
19 | CCc1ccc(S(=O)(=O)Nc2ccc3c(c2)CCC(=O)N3CC2CCC2)cc1 [A21-601] | – | – | ++++ (inhibition≧90%)
20 | O=C1CCc2cc(NS(=O)(=O)Cc3ccc(C(F)(F)F)cc3)ccc2N1CC1CCC1 [A21-178] | – | – | +++ (90%>inhibition≧70%)
21 | O=C1CCc2cc(NS(=O)(=O)Cc3ccc(C(F)(F)F)cc3)ccc2N1CC1CC1(Cl)Cl (stereo not shown) [A32-178, N-[1-(2′,2′-Dichlorocyclopropylmethyl)-2-oxo-1,2,3,4-tetrahydroquinolin-6-yl]-1-(4-trifluoromethylphenyl)methanesulfonamide] | – | – | ++ (70%>inhibition≧50%)
22 | CCOC(=O)CCN1C(=O)CC(C)(C)c2cc(NS(=O)(=O)Cc3ccc([N+](=O)[O-])cc3)ccc21 [B52-175] | – | 10% | –
23 | CCc1ccc(CS(=O)(=O)Nc2ccc3c(c2)CCC(=O)N3CC2CC2)cc1 [A19-325, N-[1-(Cyclopropylmethyl)-2-oxo-1,2,3,4-tetrahydroquinolin-6-yl]-1-(4-ethylphenyl)methanesulfonamide] | – | – | ++++ (inhibition≧90%)
24 | COC(=O)CN1C(=O)CC(C)(C)c2cc(NS(=O)(=O)Cc3ccc([N+](=O)[O-])cc3)ccc21 [B50-175] | 12% | – | –
25 | N#Cc1ccc(CS(=O)(=O)Nc2ccc3c(c2)CCC(=O)N3CC(F)(F)C(F)(F)F)cc1 [A10-181] | – | – | ++++ (inhibition≧90%)
26 | O=C1CCc2cc(NS(=O)(=O)Cc3ccc(Br)cc3)ccc2N1CC(F)(F)F [A2-172] | – | – | ++++ (inhibition≧90%)
27 | COC(=O)CN1C(=O)CCc2cc(NS(=O)(=O)Cc3ccc(Br)cc3)ccc21 [A50-172] | – | – | ++++ (inhibition≧90%)
